In patent US20120029190A1, “COMPOUNDS FOR TREATING DISORDERS MEDIATED BY METABOTROPIC GLUTAMATE RECEPTOR 5, AND METHODS OF USE THEREOF” (priority 2009, published 2012):

molecular target: T1, human recombinant mGluR5 receptor (Homo sapiens, UniProt P41594); test: mGluR5 in vitro functional assay (aequorin cell line, inhibition of glutamate EC80 response); format: cell-based; details: Table 2; aequorin cell line expressing human mGluR5, reference agonist glutamate at EC80; obtained in duplicate; read-out: IC50
T1 construct: expressed in transfected cells; expression induced with doxycycline
In short: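 Doxycycline-induced (600 ng/mL, 18 h) aequorin cells loaded with coelenterazine h ≥4 h at room temperature; compound preincubated 3 min before glutamate at EC80. Luminescence recorded, normalized to digitonin or 20 mM ATP wells; % inhibition of EC80 response fitted by sigmoidal nonlinear regression.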

T1 sequence (P41594 21-1212): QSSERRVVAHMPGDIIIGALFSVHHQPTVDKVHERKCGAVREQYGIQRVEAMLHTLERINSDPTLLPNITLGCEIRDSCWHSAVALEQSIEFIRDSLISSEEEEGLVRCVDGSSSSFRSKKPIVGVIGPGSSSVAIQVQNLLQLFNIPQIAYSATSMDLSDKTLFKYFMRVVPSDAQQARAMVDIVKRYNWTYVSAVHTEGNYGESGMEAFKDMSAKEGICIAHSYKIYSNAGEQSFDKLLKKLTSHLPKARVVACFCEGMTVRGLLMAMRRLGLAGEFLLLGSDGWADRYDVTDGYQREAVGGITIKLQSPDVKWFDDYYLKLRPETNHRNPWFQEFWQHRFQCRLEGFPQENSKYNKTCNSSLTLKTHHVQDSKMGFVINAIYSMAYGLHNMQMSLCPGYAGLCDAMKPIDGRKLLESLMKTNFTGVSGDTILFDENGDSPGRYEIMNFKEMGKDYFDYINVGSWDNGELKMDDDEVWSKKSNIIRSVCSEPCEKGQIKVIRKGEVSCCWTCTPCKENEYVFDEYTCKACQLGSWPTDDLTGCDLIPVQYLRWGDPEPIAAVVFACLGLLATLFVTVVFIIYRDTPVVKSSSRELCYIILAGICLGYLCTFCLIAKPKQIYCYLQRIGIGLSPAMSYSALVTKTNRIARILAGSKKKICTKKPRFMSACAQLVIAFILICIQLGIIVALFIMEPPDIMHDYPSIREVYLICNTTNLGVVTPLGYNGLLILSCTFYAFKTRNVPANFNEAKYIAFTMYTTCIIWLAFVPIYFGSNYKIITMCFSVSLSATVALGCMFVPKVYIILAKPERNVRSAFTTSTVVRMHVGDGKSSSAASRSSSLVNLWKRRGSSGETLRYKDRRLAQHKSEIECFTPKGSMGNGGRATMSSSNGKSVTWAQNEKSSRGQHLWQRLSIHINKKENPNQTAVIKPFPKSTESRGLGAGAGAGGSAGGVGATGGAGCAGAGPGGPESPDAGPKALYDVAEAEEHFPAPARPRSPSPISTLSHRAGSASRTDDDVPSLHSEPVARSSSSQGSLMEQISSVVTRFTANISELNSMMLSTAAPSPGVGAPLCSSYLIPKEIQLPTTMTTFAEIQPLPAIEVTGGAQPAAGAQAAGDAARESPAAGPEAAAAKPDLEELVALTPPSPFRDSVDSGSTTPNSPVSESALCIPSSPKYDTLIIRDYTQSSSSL

Row | IC50 [µM] | Structure (SMILES)
1 | < 10 | Clc1cnccc1N1CCc2oc(-c3ccccn3)nc2C1 [Compound 184, 5-(3-Chloropyridin-4-yl)-2-(pyridin-2-yl)-4,5,6,7-tetrahydrooxazolo[4,5-c]pyridine]
2 | < 1 | N#Cc1ccc(F)c(N2CCc3oc(-c4ccccn4)nc3C2)c1 [Compound 185, 4-Fluoro-3-(2-(pyridin-2-yl)-6,7-dihydrooxazolo[4,5-c]pyridin-5(4H)-yl)benzonitrile]
3 | < 1 | N#Cc1cc(Cl)cc(N2CCc3oc(-c4ccccn4)nc3C2)c1 [Compound 186, 3-Chloro-5-(2-(pyridin-2-yl)-6,7-dihydrooxazolo[4,5-c]pyridin-5(4H)-yl)benzonitrile]
4 | < 1 | Clc1cccnc1N1CCc2oc(-c3ccccn3)nc2C1 [Compound 187, 5-(3-Chloropyridin-2-yl)-2-(pyridin-2-yl)-4,5,6,7-tetrahydrooxazolo[4,5-c]pyridine]
5 | < 1 | Fc1cc(F)c(F)c(N2CCc3oc(-c4ccccn4)nc3C2)c1 [Compound 188, 2-(Pyridin-2-yl)-5-(2,3,5-trifluorophenyl)-4,5,6,7-tetrahydrooxazolo[4,5-c]pyridine]
6 | < 1 | N#Cc1c(F)cccc1N1CCc2oc(-c3ccccn3)nc2C1 [Compound 189, 2-Fluoro-6-(2-(pyridin-2-yl)-6,7-dihydrooxazolo[4,5-c]pyridin-5(4H)-yl)benzonitrile]
7 | < 10 | O=C(CN1CCc2oc(-c3cccc(Cl)c3)nc2C1)c1ccc(F)cc1 [Compound 190, 2-(2-(3-Chlorophenyl)-6,7-dihydrooxazolo[4,5-c]pyridin-5(4H)-yl)-1-(4-fluorophenyl)ethanone]
8 | > 10 | O=C(CN1CCc2oc(-c3cccc(F)c3)nc2C1)c1ccc(F)cc1 [Compound 191, 1-(4-Fluorophenyl)-2-(2-(3-fluorophenyl)-6,7-dihydrooxazolo[4,5-c]pyridin-5(4H)-yl)ethanone]
9 | > 10 | O=C(CN1CCc2oc(-c3ccccn3)nc2C1)c1ccc(F)cc1 [Compound 192, 1-(4-Fluorophenyl)-2-(2-(pyridin-2-yl)-6,7-dihydrooxazolo[4,5-c]pyridin-5(4H)-yl)ethanone]
10 | < 1 | c1ccc(-c2nc3c(o2)CCN(c2ccccc2N2CCOCC2)C3)nc1 [Compound 193, 5-(2-Morpholinophenyl)-2-(pyridin-2-yl)-4,5,6,7-tetrahydrooxazolo[4,5-c]pyridine]
11 | < 1 | c1ccc(-c2nc3c(o2)CCN(c2cccc4[nH]ccc24)C3)nc1 [Compound 194, 5-(1H-Indol-4-yl)-2-(pyridin-2-yl)-4,5,6,7-tetrahydrooxazolo[4,5-c]pyridine]
12 | > 10 | CC(C)(c1ccccn1)c1nc2c(o1)CCN(c1cc(F)cc(C#N)c1)C2 [Compound 195, 3-Fluoro-5-(2-(2-(pyridin-2-yl)propan-2-yl)-6,7-dihydrooxazolo[4,5-c]pyridin-5(4H)-yl)benzonitrile]
13 | > 10 | CC1(C)CN(c2ccc(F)cc2Cl)Cc2nc(-c3ccccn3)oc21 [Compound 196, 5-(2-Chloro-4-fluorophenyl)-7,7-dimethyl-2-(pyridin-2-yl)-4,5,6,7-tetrahydrooxazolo[4,5-c]pyridine]
14 | < 1 | Fc1ccc(N2CCCc3oc(-c4ccccn4)nc3C2)cc1F [Compound 197, 5-(3,4-Difluorophenyl)-2-(pyridin-2-yl)-5,6,7,8-tetrahydro-4H-oxazolo[4,5-c]azepine]
15 | < 1 | Clc1cncc(N2CCCc3oc(-c4ccccn4)nc3C2)c1 [Compound 198, 5-(5-Chloropyridin-3-yl)-2-(pyridin-2-yl)-5,6,7,8-tetrahydro-4H-oxazolo[4,5-c]azepine]
16 | < 1 | Fc1cc(Cl)cc(N2CCCc3oc(-c4ccccn4)nc3C2)c1 [Compound 199, 5-(3-Chloro-5-fluorophenyl)-2-(pyridin-2-yl)-5,6,7,8-tetrahydro-4H-oxazolo[4,5-c]azepine]
17 | > 10 | Fc1ccc(N2CCCc3oc(-c4ncccn4)nc3C2)cc1F [Compound 200, 5-(3,4-Difluorophenyl)-2-(pyrimidin-2-yl)-5,6,7,8-tetrahydro-4H-oxazolo[4,5-c]azepine]
18 | < 10 | Clc1cncc(N2CCCc3oc(-c4ncccn4)nc3C2)c1 [Compound 201, 5-(5-Chloropyridin-3-yl)-2-(pyrimidin-2-yl)-5,6,7,8-tetrahydro-4H-oxazolo[4,5-c]azepine]

Row | IC50 [µM] | Structure (SMILES)
19 | < 1 | Fc1cc(Cl)cc(N2CCCc3oc(-c4ncccn4)nc3C2)c1 [Compound 202, 5-(3-Chloro-5-fluorophenyl)-2-(pyrimidin-2-yl)-5,6,7,8-tetrahydro-4H-oxazolo[4,5-c]azepine]
20 | < 1 | N#Cc1cc(F)cc(N2CCCc3oc(-c4ncccn4)nc3C2)c1 [Compound 203, 3-Fluoro-5-(2-(pyrimidin-2-yl)-7,8-dihydro-4H-oxazolo[4,5-c]azepin-5(6H)-yl)benzonitrile]
21 | > 10 | Fc1ccc(N2CCCc3oc(-c4ncccn4)nc3C2)cc1Cl [Compound 204, 5-(3-Chloro-4-fluorophenyl)-2-(pyrimidin-2-yl)-5,6,7,8-tetrahydro-4H-oxazolo[4,5-c]azepine]
22 | < 1 | Fc1ccc(-c2nc3c(o2)CCCN(c2cc(F)cc(Cl)c2)C3)nc1 [Compound 205, 5-(3-Chloro-5-fluorophenyl)-2-(5-fluoropyridin-2-yl)-5,6,7,8-tetrahydro-4H-oxazolo[4,5-c]azepine]
23 | > 10 | N#Cc1cc(F)cc(N2CCCc3oc(-c4cncnc4)nc3C2)c1 [Compound 206, 3-Fluoro-5-(2-(pyrimidin-5-yl)-7,8-dihydro-4H-oxazolo[4,5-c]azepin-5(6H)-yl)benzonitrile]
24 | < 10 | Cc1nc(-c2nc3c(o2)CCCN(c2ccccn2)C3)cs1 [Compound 207, 2-(2-Methylthiazol-4-yl)-5-(pyridin-2-yl)-5,6,7,8-tetrahydro-4H-oxazolo[4,5-c]azepine]
25 | > 10 | Cc1nc(N2CCCc3oc(-c4ccccn4)nc3C2)cs1 [Compound 208, 5-(2-Methylthiazol-4-yl)-2-(pyridin-2-yl)-5,6,7,8-tetrahydro-4H-oxazolo[4,5-c]azepine]
26 | < 1 | Clc1cc(Cl)cc(N2CCCc3oc(-c4ccccn4)nc3C2)c1 [Compound 209, 5-(3,5-Dichlorophenyl)-2-(pyridin-2-yl)-5,6,7,8-tetrahydro-4H-oxazolo[4,5-c]azepine]
27 | < 1 | [2H]c1c(F)c([2H])c(N2CCCc3oc(-c4ccccn4)nc3C2)c([2H])c1C#N [Compound 210, 2,4,6-d3-3-Fluoro-5-(2-(pyridin-2-yl)-7,8-dihydro-4H-oxazolo[4,5-c]azepin-5(6H)-yl)benzonitrile]
28 | < 1 | Clc1ccccc1N1CCCc2oc(-c3ccccn3)nc2C1 [Compound 211, 5-(2-Chlorophenyl)-2-(pyridin-2-yl)-5,6,7,8-tetrahydro-4H-oxazolo[4,5-c]azepine]
29 | < 1 | Clc1ccc(N2CCCc3oc(-c4ccccn4)nc3C2)cc1 [Compound 212, 5-(4-Chlorophenyl)-2-(pyridin-2-yl)-5,6,7,8-tetrahydro-4H-oxazolo[4,5-c]azepine]
30 | < 1 | COc1cc(C#N)cc(N2CCCc3oc(-c4ccccn4)nc3C2)c1 [Compound 213, 3-Methoxy-5-(2-(pyridin-2-yl)-7,8-dihydro-4H-oxazolo[4,5-c]azepin-5(6H)-yl)benzonitrile]
31 | < 1 | N#Cc1cc(O)cc(N2CCCc3oc(-c4ccccn4)nc3C2)c1 [Compound 214, 3-Hydroxy-5-(2-(pyridin-2-yl)-7,8-dihydro-4H-oxazolo[4,5-c]azepin-5(6H)-yl)benzonitrile]
32 | < 1 | CC1CCN(c2cc(F)cc(C#N)c2)Cc2nc(-c3ccccn3)oc21 (stereo not drawn) [Compound 215, 3-Fluoro-5-(8-methyl-2-(pyridin-2-yl)-7,8-dihydro-4H-oxazolo[4,5-c]azepin-5(6H)-yl)benzonitrile]
33 | < 1 | N#Cc1cc(N2CCCc3oc(-c4ccccn4)nc3C2)cc(F)c1F [Compound 216, 2,3-Difluoro-5-(2-(pyridin-2-yl)-7,8-dihydro-4H-oxazolo[4,5-c]azepin-5(6H)-yl)benzonitrile]
34 | < 1 | COc1c(F)cc(N2CCCc3oc(-c4ccccn4)nc3C2)cc1C#N [Compound 217, 3-Fluoro-2-methoxy-5-(2-(pyridin-2-yl)-7,8-dihydro-4H-oxazolo[4,5-c]azepin-5(6H)-yl)benzonitrile]
35 | < 10 | N#Cc1cc(N2CCCc3oc(-c4ccccn4)nc3C2)cc(F)c1O [Compound 218, 3-Fluoro-2-hydroxy-5-(2-(pyridin-2-yl)-7,8-dihydro-4H-oxazolo[4,5-c]azepin-5(6H)-yl)benzonitrile]
36 | < 1 | N#Cc1cc(F)cc(C2CCc3oc(-c4ccccn4)nc3C2)c1 (stereo not drawn) [Compound 222, 3-Fluoro-5-(2-(pyridin-2-yl)-4,5,6,7-tetrahydrobenzo[d]oxazol-5-yl)benzonitrile]
